From US20020137929A1, “1 - (3-heterocyclylphenyl) isothiourea, -isourea, -guanidine and -amidine herbicidal agents” (Intellectual Property Department, BASF Aktiengesellschaft, priority 1998, published 2002)

Tests used:
[1] = system: TRZAWR (Wheat, Winter, cv Riband); test: Preemergence herbicidal evaluation; type: in vivo, Triticum aestivum; conditions: rated 4-5 weeks after treatment; for TRZAWR rating: preemergence, 0-9 scale
Summary of the method: (§1)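 In this greenhouse assay, monocot and dicot seeds are planted in soil and treated prior to emergence with an aqueous acetone spray (about 0.0156-0.500 kg/ha). Plants are assessed visually against control on a 0-9 scale after 4-5 weeks.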

[2] = system: SAGPY (Arrowhead (Pygmaea)); test: Preemergence weed control under flooded paddy conditions; type: in vivo, Sagittaria pygmaea; conditions: rated 3-4 weeks after treatment
Summary of the method: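 Flooded-pot preemergence screen with silt loam and seeds in the upper 0.5 cm. Dose about 0.0313 to 0.500 kg/ha, delivered into flood water; visual 0-9 score after 3 to 4 weeks.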

[3] = system: ECHORC (Watergrass (Calif.)); test: as above; type: in vivo, Echinochloa oryzoides; conditions: rated 3-4 weeks after treatment
Summary of the method: (§2)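 Silt loam, seeds in top 0.5 cm; flood held 1.5-3 cm; test cpd as acetone/water 50/50 into flood water, ~0.0313-0.500 kg/ha a.i.; greenhouse 3-4 wk; visual 0-9 score vs control.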

CYPIR (Rice Flatsedge) = test: as above; type: in vivo, Cyperus iria; conditions: rated 3-4 weeks after treatment
Summary of the method: as §2

MOOVA (Monochoria) = test: Postemergence weed control under flooded paddy conditions; type: in vivo, Monochoria vaginalis; conditions: postemergence weeds, rated 3 to 4 weeks after treatment
Summary of the method: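 Containers holding 3–5 cm weeds and rice at 1.5–2.5 leaves are flooded to 1.5–3 cm above soil. Compound in 50/50 v/v aqueous/acetone is then added directly to the water, about 0.0313–0.500 kg/ha. Plants are kept in the greenhouse and rated 0–9 visually at 3–4 weeks.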

ABUTH (Velvetleaf) = test: Preemergence herbicidal evaluation; type: in vivo, Abutilon theophrasti; conditions: rated 4-5 weeks after treatment; for ABUTH rating: preemergence, 0-9 scale
Summary of the method: as §1

ORYSAT (Rice, Tebonnet) = test: Rice tolerance to post-transplant applications, flooded paddy conditions (Table III); type: in vivo, Oryza sativa, (L.) Tebonnet; conditions: in vivo
Protocol: Results of herbicide evaluation are expressed on a rating scale (0-9). The scale is based upon a visual observation of plant stand, vigor, malformation, size, chlorosis and overall plant appearance as compared with a control.
The tolerance of transplanted rice to post-transplanted herbicide applications is determined as follows: two ten-day-old rice seedlings (cv. Tebonnet) are transplanted into silt loam soil in 32 oz. plastic containers with a diameter of 10.5 cm and no drainage holes. After transplanting, the containers are flooded and the water level is maintained at 1.5 to 3 cm above the soil surface. Three days after transplanting, the flooded soil surface of the containers is treated with the selected aqueous/acetone 50/50 v/v mixture containing the test compounds to provide the equivalent of about 0.0313 to 0.500 kg/ha of active ingredient. The treated containers are placed on greenhouse benches, watered such that the water level is maintained as stated above, and cared for in accordance with conventional greenhouse procedures. Three to four weeks after treatment, the test is terminated and each container is examined and herbicidal effect rated according to the rating system provided in Example 37. The compounds evaluated are reported by compound number given in Example 37.
Plant species employed in this example are reported by header abbreviation, common name and scientific name.

[4] = rate 0.0156 kg/ha, rating scale 0-9
[5] = rate 0.0313 kg/ha, rating scale 0-9
[6] = rate 0.0625 kg/ha, rating scale 0-9
[7] = rate 0.1250 kg/ha, rating scale 0-9
[8] = rate 0.2500 kg/ha, rating scale 0-9

## C=CCN1C(=O)C(CC(=O)NS(=O)(=O)CC)SC1=Nc1cc(-n2c(=O)cc(C(F)(F)F)n(C)c2=O)c(F)cc1Cl (stereo not shown) [Compound 104, 3-Allyl-2-{{2-chloro-5-[3,6-dihydro-3-methyl-2,6-dioxo-4-(trifluoromethyl)-1(2H)-pyrimidinyl]-4-fluorophenyl}imino}-N-(ethylsulfonyl)-4-oxo-5-thiazolidineacetamide]
[1]; 0.0625 kg/ha
  TRZAWR rating: 0.0
[1]; 0.1250 kg/ha
  TRZAWR rating: 0.0
[1]; 0.2500 kg/ha
  TRZAWR rating: 0.0
[1]; 0.5000 kg/ha
  TRZAWR rating: 1.0
[2]; 0.0313 kg/ha
  SAGPY herbicidal effect rating: 6.0
[2]; 0.0625 kg/ha
  SAGPY herbicidal effect rating: 9.0
[2]; 0.1250 kg/ha
  SAGPY herbicidal effect rating: 9.0
[2]; 0.2500 kg/ha
  SAGPY herbicidal effect rating: 9.0
[3]; 0.0313 kg/ha
  ECHORC herbicidal effect rating: 4.0
[3]; 0.0625 kg/ha
  ECHORC herbicidal effect rating: 5.0
[3]; 0.1250 kg/ha
  ECHORC herbicidal effect rating: 6.0
[3]; 0.2500 kg/ha
  ECHORC herbicidal effect rating: 6.0
CYPIR (Rice Flatsedge); 0.0313 kg/ha
  CYPIR herbicidal effect rating: 5.0
CYPIR (Rice Flatsedge); 0.0625 kg/ha
  CYPIR herbicidal effect rating: 9.0
CYPIR (Rice Flatsedge); 0.1250 kg/ha
  CYPIR herbicidal effect rating: 9.0
CYPIR (Rice Flatsedge); 0.2500 kg/ha
  CYPIR herbicidal effect rating: 9.0
MOOVA (Monochoria); Rate 0.0313 kg/ha
  Herbicidal rating MOOVA: 7.0
MOOVA (Monochoria); Rate 0.0625 kg/ha
  Herbicidal rating MOOVA: 9.0
MOOVA (Monochoria); Rate 0.1250 kg/ha
  Herbicidal rating MOOVA: 9.0
MOOVA (Monochoria); Rate 0.2500 kg/ha
  Herbicidal rating MOOVA: 9.0
ABUTH (Velvetleaf); 0.0625 kg/ha
  ABUTH rating: 3.0
ABUTH (Velvetleaf); 0.1250 kg/ha
  ABUTH rating: 8.0
ABUTH (Velvetleaf); 0.2500 kg/ha
  ABUTH rating: 9.0
ABUTH (Velvetleaf); 0.5000 kg/ha
  ABUTH rating: 9.0

## CC(C)S(=O)(=O)NC(=O)CC1SC(=Nc2cc(-n3c(=O)cc(C(F)(F)F)n(C)c3=O)c(F)cc2Cl)N(C)C1=O (stereo not shown) [Compound 119, 2-{{2-Chloro-5-[3,6-dihydro-3-methyl-2,6-dioxo-4-(trifluoromethyl)-1(2H)-pyrimidinyl]-4-fluorophenyl}imino}-N-(isopropylsulfonyl)-3-methyl-4-oxo-5-thiazolidineacetamide]
[1]; rate 0.0156 kg/ha
  Preemergence herbicidal rating TRZAWR: 0.0
[1]; rate 0.0313 kg/ha
  Preemergence herbicidal rating TRZAWR: 0.0
[1]; rate 0.0625 kg/ha
  Preemergence herbicidal rating TRZAWR: 0.0
[1]; rate 0.1250 kg/ha
  Preemergence herbicidal rating TRZAWR: 0.0
[1]; rate 0.2500 kg/ha
  Preemergence herbicidal rating TRZAWR: 0.0
[2]; 0.0313 kg/ha
  herbicidal effect rating, SAGPY: 2.5
[2]; 0.0625 kg/ha
  herbicidal effect rating, SAGPY: 3.0
[2]; 0.1250 kg/ha
  herbicidal effect rating, SAGPY: 3.5
[2]; 0.2500 kg/ha
  herbicidal effect rating, SAGPY: 4.5
[3]; 0.0313 kg/ha
  herbicidal effect rating, ECHORC: 8.0
[3]; 0.0625 kg/ha
  herbicidal effect rating, ECHORC: 9.0
[3]; 0.1250 kg/ha
  herbicidal effect rating, ECHORC: 9.0
[3]; 0.2500 kg/ha
  herbicidal effect rating, ECHORC: 9.0
CYPIR (Rice Flatsedge); 0.0313 kg/ha
  herbicidal effect rating, CYPIR: 4.5
CYPIR (Rice Flatsedge); 0.0625 kg/ha
  herbicidal effect rating, CYPIR: 7.0
CYPIR (Rice Flatsedge); 0.1250 kg/ha
  herbicidal effect rating, CYPIR: 8.5
CYPIR (Rice Flatsedge); 0.2500 kg/ha
  herbicidal effect rating, CYPIR: 8.0
MOOVA (Monochoria); Rate 0.0313 kg/ha
  Herbicidal rating MOOVA: 4.0
MOOVA (Monochoria); Rate 0.0625 kg/ha
  Herbicidal rating MOOVA: 7.0
MOOVA (Monochoria); Rate 0.1250 kg/ha
  Herbicidal rating MOOVA: 8.0
MOOVA (Monochoria); Rate 0.2500 kg/ha
  Herbicidal rating MOOVA: 9.0
ABUTH (Velvetleaf); rate 0.0156 kg/ha
  Preemergence herbicidal rating ABUTH: 0.0
ABUTH (Velvetleaf); rate 0.0313 kg/ha
  Preemergence herbicidal rating ABUTH: 3.0
ABUTH (Velvetleaf); rate 0.0625 kg/ha
  Preemergence herbicidal rating ABUTH: 4.0
ABUTH (Velvetleaf); rate 0.1250 kg/ha
  Preemergence herbicidal rating ABUTH: 9.0
ABUTH (Velvetleaf); rate 0.2500 kg/ha
  Preemergence herbicidal rating ABUTH: 9.0

## CN(C)c1ccc(CN2C(=O)CSC2=Nc2cc(-n3c(=O)cc(C(F)(F)F)n(C)c3=O)c(F)cc2Cl)cc1 [Compound 138, 3-{4-Chloro-5-{{3-[p-(dimethylamino)benzyl]-4-oxo-2-thiazolidinylidene}amino}-2-fluorophenyl}-1-methyl-6-(trifluoromethyl)-2,4(1H,3H)-pyrimidinedione]
[1]; [4]
  Preemergence herbicidal rating TRZAWR: 0.0
[1]; [5]
  Preemergence herbicidal rating TRZAWR: 0.0
[1]; [6]
  Preemergence herbicidal rating TRZAWR: 0.0
[1]; [7]
  Preemergence herbicidal rating TRZAWR: 0.0
[1]; [8]
  Preemergence herbicidal rating TRZAWR: 0.0
[2]; 0.0313 kg/ha
  herbicidal effect rating, SAGPY: 0.0
[2]; 0.0625 kg/ha
  herbicidal effect rating, SAGPY: 0.0
[2]; 0.1250 kg/ha
  herbicidal effect rating, SAGPY: 0.0
[2]; 0.2500 kg/ha
  herbicidal effect rating, SAGPY: 3.0
[3]; 0.0313 kg/ha
  herbicidal effect rating, ECHORC: 7.0
[3]; 0.0625 kg/ha
  herbicidal effect rating, ECHORC: 9.0
[3]; 0.1250 kg/ha
  herbicidal effect rating, ECHORC: 9.0
[3]; 0.2500 kg/ha
  herbicidal effect rating, ECHORC: 9.0
ORYSAT (Rice, Tebonnet)
  herbicidal effect rating, ORYSAT (rice tolerance): 3.0
CYPIR (Rice Flatsedge); 0.0313 kg/ha
  herbicidal effect rating, CYPIR: 2.0
CYPIR (Rice Flatsedge); 0.0625 kg/ha
  herbicidal effect rating, CYPIR: 2.0
CYPIR (Rice Flatsedge); 0.1250 kg/ha
  herbicidal effect rating, CYPIR: 3.0
CYPIR (Rice Flatsedge); 0.2500 kg/ha
  herbicidal effect rating, CYPIR: 5.0
ABUTH (Velvetleaf); [4]
  Preemergence herbicidal rating ABUTH: 0.0
ABUTH (Velvetleaf); [5]
  Preemergence herbicidal rating ABUTH: 0.0
ABUTH (Velvetleaf); [6]
  Preemergence herbicidal rating ABUTH: 0.0
ABUTH (Velvetleaf); [7]
  Preemergence herbicidal rating ABUTH: 9.0
ABUTH (Velvetleaf); [8]
  Preemergence herbicidal rating ABUTH: 9.0
